In patent US20180265515A1 (Genentech, Inc., priority 2015, published 2018) one finds Ki and IC50 data, which are given here for 15 compounds.

In assay [1] the target is T1, isolated recombinant JAK2 kinase domain (Homo sapiens, UniProt O60674).
T1 construct: The activity of the isolated recombinant JAK1 and JAK2 kinase domain was measured
The assay can be described thus: JAK2 enzyme assay (Caliper LabChip, Ki). Format: biochemical. To be noted: 25 μM ATP. An outline of the steps:
(§1)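 Values are Ki estimates derived with the Morrison tight-binding equation modified for competition with ATP. Activity of the recombinant kinase domains was measured as peptide phosphorylation on a Caliper LabChip after a 30-minute, 22° C reaction terminated by EDTA.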

For assay [2], the system named is JAK1-dependent STAT6 phosphorylation downstream of IL-13 stimulation in BEAS-2B human bronchial epithelial cells. The assay can be described thus: JAK1 pathway assay in BEAS-2B cells (IL-13 stimulated STAT6 phosphorylation, MSD). It is filed as cell-based. The conditions noted are these: read-out: P-STAT6 BEAS2B + IL13 IC50. Put shortly:
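BEAS-2B human bronchial epithelial cells, plated the day before in complete growth medium, were preincubated with compound for 1 hr at 37° C (0.2% DMSO final), then stimulated with IL-13 at its EC90 for 15 min. STAT6 phosphorylation in lysates was read by MSD; EC50 was taken as 50% inhibition versus DMSO control.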

The target in assay [3] is T2, isolated recombinant JAK1 kinase domain (Homo sapiens, UniProt P23458).
T2 construct: The activity of the isolated recombinant JAK1 and JAK2 kinase domain was measured
The assay can be described thus: JAK1 enzyme assay (Caliper LabChip, Ki). It is filed as biochemical. To be noted: recombinant JAK1 kinase domain, 25 μM ATP. An outline of the steps: as §1

T1 sequence (O60674 849-1124 limits assumed): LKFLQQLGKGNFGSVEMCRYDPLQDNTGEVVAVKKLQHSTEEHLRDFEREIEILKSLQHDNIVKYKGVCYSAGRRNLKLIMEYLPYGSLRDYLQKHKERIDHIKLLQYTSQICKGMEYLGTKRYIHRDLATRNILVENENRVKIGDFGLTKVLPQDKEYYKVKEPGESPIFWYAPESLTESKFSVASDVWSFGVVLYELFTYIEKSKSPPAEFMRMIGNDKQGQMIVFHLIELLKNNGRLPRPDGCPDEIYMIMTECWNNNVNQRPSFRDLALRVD
T2 sequence (P23458 875-1153 limits assumed): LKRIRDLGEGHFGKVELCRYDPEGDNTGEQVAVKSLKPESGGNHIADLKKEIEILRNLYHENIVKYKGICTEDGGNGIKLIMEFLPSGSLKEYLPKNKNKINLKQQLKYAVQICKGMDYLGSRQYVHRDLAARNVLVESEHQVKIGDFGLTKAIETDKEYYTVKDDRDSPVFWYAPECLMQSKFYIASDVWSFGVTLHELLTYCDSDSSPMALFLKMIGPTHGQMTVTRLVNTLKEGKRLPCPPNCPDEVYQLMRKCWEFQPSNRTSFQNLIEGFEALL

The term Ki denotes a dissociation constant, usually derived from enzyme kinetics or from competition with a known ligand. One may read the IC50 as the midpoint of a concentration-inhibition curve. As to `COC(=O)N1CCN(CC2CCN(C(=O)Cn3cc(NC(=O)c4cnn5cccnc45)c(-c4cc(SC5CC5)ccc4OC(F)F)n3)CC2)CC1` [Example 173, methyl 4-[[1-[2-[3-[5-cyclopropylsulfanyl-2-(difluoromethoxy)phenyl]-4-(pyrazolo[1,5-a]pyrimidine-3-carbonylamino)pyrazol-1-yl]acetyl]-4-piperidyl]methyl]piperazine-1-carboxylate], the figures for the Ki in assay [1] and in assay [3] were 0.83 nM and 0.33 nM, respectively. Further, the IC50 in assay [2] amounted to 17 nM.
Turning to `O=C(Nc1cn(Cc2cn(C3CCN(C4COC4)CC3)nn2)nc1-c1cc(SC2CC2)ccc1OC(F)F)c1cnn2cccnc12` [Example 174, N-[3-[5-cyclopropylsulfanyl-2-(difluoromethoxy)phenyl]-1-[[1-[1-(oxetan-3-yl)-4-piperidyl]triazol-4-yl]methyl]pyrazol-4-yl]pyrazolo[1,5-a]pyrimidine-3-carboxamide], the Ki in assay [1] is 0.21 nM; in assay [3], 0.27 nM. Further, the IC50 in assay [2] is 11 nM.
The matching figures for `O=C(Nc1c[nH]nc1-c1cc(SC2COC2)ccc1OC(F)F)c1cnn2cccnc12` [Example 175, N-[3-[2-(difluoromethoxy)-5-(oxetan-3-ylsulfanyl)phenyl]-1H-pyrazol-4-yl]pyrazolo[1,5-a]pyrimidine-3-carboxamide]: 0.11 nM, 0.23 nM and 9.5 nM.
Turning to `CN1CCC[C@@H]1Cn1cc(NC(=O)c2cnn3cccnc23)c(-c2cc(SC3COC3)ccc2OC(F)F)n1` [Example 176, N-[3-[2-(difluoromethoxy)-5-(oxetan-3-ylsulfanyl)phenyl]-1-[[(2R)-1-methylpyrrolidin-2-yl]methyl]pyrazol-4-yl]pyrazolo[1,5-a]pyrimidine-3-carboxamide], the Ki worked out at 1.4 nM in assay [1] and 0.38 nM in assay [3]. Further, the IC50 in assay [2] was 28 nM.
For `O=C(Nc1cn(CCN[C@@H]2CCOC2)nc1-c1cc(SC2COC2)ccc1OC(F)F)c1cnn2cccnc12` [Example 177, N-[3-[2-(difluoromethoxy)-5-(oxetan-3-ylsulfanyl)phenyl]-1-[2-[[(3R)-tetrahydrofuran-3-yl]amino]ethyl]pyrazol-4-yl]pyrazolo[1,5-a]pyrimidine-3-carboxamide] the same measures were 0.48 nM, 0.81 nM and 18 nM.
Take `CNCCn1cc(NC(=O)c2cnn3cccnc23)c(-c2cc(SC3COC3)ccc2OC(F)F)n1` [Example 178, N-[3-[2-(difluoromethoxy)-5-(oxetan-3-ylsulfanyl)phenyl]-1-[2-(methylamino)ethyl]pyrazol-4-yl]pyrazolo[1,5-a]pyrimidine-3-carboxamide]: the inhibitory constant (Ki) in assay [1] was 0.64 nM; in assay [3] it was 0.36 nM. The IC50 in assay [2] amounted to 9 nM.
As to `O=C(Nc1cn(CCN[C@H]2C[C@H](O)C2)nc1-c1cc(SC2COC2)ccc1OC(F)F)c1cnn2cccnc12` [Example 179, N-[3-[2-(difluoromethoxy)-5-(oxetan-3-ylsulfanyl)phenyl]-1-(2-[[trans-3-hydroxycyclobutyl]amino]ethyl)-1H-pyrazol-4-yl]pyrazolo[1,5-a]pyrimidine-3-carboxamide], the Ki in assay [1] amounted to 0.59 nM; in assay [3], 0.74 nM. Further, the IC50 in assay [2] stood at 26 nM.
Consider `O=C(Nc1cn(CCN[C@@H]2CCCOC2)nc1-c1cc(SC2COC2)ccc1OC(F)F)c1cnn2cccnc12` [Example 180, N-[3-[2-(difluoromethoxy)-5-(oxetan-3-ylsulfanyl)phenyl]-1-[2-[[(3R)-tetrahydropyran-3-yl]amino]ethyl]pyrazol-4-yl]pyrazolo[1,5-a]pyrimidine-3-carboxamide], for which the Ki in assay [1] was 0.76 nM; in assay [3], 1 nM. In addition, the IC50 in assay [2] was determined as 14 nM.
On to `CCN1CCN(C(=O)Cn2cc(NC(=O)c3cnn4cccnc34)c(-c3cc(SC4COC4)ccc3OC(F)F)n2)CC1` [Example 181, N-[3-[2-(difluoromethoxy)-5-(oxetan-3-ylsulfanyl)phenyl]-1-[2-(4-ethylpiperazin-1-yl)-2-oxo-ethyl]pyrazol-4-yl]pyrazolo[1,5-a]pyrimidine-3-carboxamide], for which the Ki is 1.8 nM in assay [1] and 0.8 nM in assay [3]. The IC50 in assay [2] was 83 nM.
As for `O=C(Nc1cn(CC(=O)N2CCC(N3CCOCC3)CC2)nc1-c1cc(SC2COC2)ccc1OC(F)F)c1cnn2cccnc12` [Example 182, N-[3-[2-(difluoromethoxy)-5-(oxetan-3-ylsulfanyl)phenyl]-1-[2-(4-morpholino-1-piperidyl)-2-oxo-ethyl]pyrazol-4-yl]pyrazolo[1,5-a]pyrimidine-3-carboxamide], the Ki in assay [1] is 1.9 nM; in assay [3] it was 0.92 nM. In addition, the IC50 in assay [2] was 91 nM.
The matching figures for `O=C(Nc1cn(CC(=O)N2CCC(CN3CCOCC3)CC2)nc1-c1cc(SC2COC2)ccc1OC(F)F)c1cnn2cccnc12` [Example 183, N-[3-[2-(difluoromethoxy)-5-(oxetan-3-ylsulfanyl)phenyl]-1-[2-[4-(morpholinomethyl)-1-piperidyl]-2-oxo-ethyl]pyrazol-4-yl]pyrazolo[1,5-a]pyrimidine-3-carboxamide]: 1.5 nM, 0.65 nM and 33 nM.
With `O=C(Nc1cn(CC(=O)N2CCN(C3CCOCC3)CC2)nc1-c1cc(SC2COC2)ccc1OC(F)F)c1cnn2cccnc12` [Example 184, N-[3-[2-(difluoromethoxy)-5-(oxetan-3-ylsulfanyl)phenyl]-1-[2-oxo-2-(4-tetrahydropyran-4-ylpiperazin-1-yl)ethyl]pyrazol-4-yl]pyrazolo[1,5-a]pyrimidine-3-carboxamide], the Ki in assay [1] turned out to be 1.1 nM; in assay [3], 0.56 nM. For the same compound, in assay [2], the IC50 is 74 nM.
For `CC(F)(F)CNC1CCN(C(=O)Cn2cc(NC(=O)c3cnn4cccnc34)c(-c3cc(SC4COC4)ccc3OC(F)F)n2)CC1` [Example 185, N-[3-[2-(difluoromethoxy)-5-(oxetan-3-ylsulfanyl)phenyl]-1-[2-[4-(2,2-difluoropropylamino)-1-piperidyl]-2-oxo-ethyl]pyrazol-4-yl]pyrazolo[1,5-a]pyrimidine-3-carboxamide] the same measures were 1.7 nM, 0.71 nM and 47 nM.
Turning to `CC(C)(C#N)CNC1CCN(C(=O)Cn2cc(NC(=O)c3cnn4cccnc34)c(-c3cc(SC4COC4)ccc3OC(F)F)n2)CC1` [Example 186, N-[1-[2-[4-[(2-cyano-2-methyl-propyl)amino]-1-piperidyl]-2-oxo-ethyl]-3-[2-(difluoromethoxy)-5-(oxetan-3-ylsulfanyl)phenyl]pyrazol-4-yl]pyrazolo[1,5-a]pyrimidine-3-carboxamide], the Ki in assay [1] came out at 1.8 nM; in assay [3], 0.65 nM. In addition, the IC50 in assay [2] stood at 90 nM.
As for `CN(C1CCN(C(=O)Cn2cc(NC(=O)c3cnn4cccnc34)c(-c3cc(SC4COC4)ccc3OC(F)F)n2)CC1)C1COC1` [Example 187, N-[3-[2-(difluoromethoxy)-5-(oxetan-3-ylsulfanyl)phenyl]-1-[2-[4-[methyl(oxetan-3-yl)amino]-1-piperidyl]-2-oxo-ethyl]pyrazol-4-yl]pyrazolo[1,5-a]pyrimidine-3-carboxamide], the results for the Ki in assay [1] and in assay [3] were 1.3 nM and 0.54 nM, respectively. In addition, the IC50 in assay [2] stood at 250 nM.
